Assays:
[1] = biological target: Beta-1 adrenergic receptor (Homo sapiens, UniProt P08588); assay type: functional, cell-based
[2] = biological target: T1, Muscarinic acetylcholine receptor M4 (Homo sapiens, UniProt P08173)
T1 sequence (P08173 whole entry): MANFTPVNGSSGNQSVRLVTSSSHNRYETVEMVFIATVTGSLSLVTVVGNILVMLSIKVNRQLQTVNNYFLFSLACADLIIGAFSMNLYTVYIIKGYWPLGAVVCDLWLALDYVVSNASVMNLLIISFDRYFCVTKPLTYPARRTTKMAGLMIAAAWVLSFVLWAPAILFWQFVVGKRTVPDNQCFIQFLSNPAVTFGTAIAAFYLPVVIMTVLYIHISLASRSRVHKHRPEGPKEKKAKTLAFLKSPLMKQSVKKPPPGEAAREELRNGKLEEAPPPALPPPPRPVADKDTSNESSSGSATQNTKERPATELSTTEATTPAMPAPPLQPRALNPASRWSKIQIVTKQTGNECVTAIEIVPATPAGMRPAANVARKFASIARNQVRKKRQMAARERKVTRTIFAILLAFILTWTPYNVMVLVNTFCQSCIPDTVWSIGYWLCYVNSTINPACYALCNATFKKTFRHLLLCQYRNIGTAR

[3] = biological target: T2, Muscarinic acetylcholine receptor M5 (Homo sapiens, UniProt P08912)
T2 sequence (P08912 whole entry): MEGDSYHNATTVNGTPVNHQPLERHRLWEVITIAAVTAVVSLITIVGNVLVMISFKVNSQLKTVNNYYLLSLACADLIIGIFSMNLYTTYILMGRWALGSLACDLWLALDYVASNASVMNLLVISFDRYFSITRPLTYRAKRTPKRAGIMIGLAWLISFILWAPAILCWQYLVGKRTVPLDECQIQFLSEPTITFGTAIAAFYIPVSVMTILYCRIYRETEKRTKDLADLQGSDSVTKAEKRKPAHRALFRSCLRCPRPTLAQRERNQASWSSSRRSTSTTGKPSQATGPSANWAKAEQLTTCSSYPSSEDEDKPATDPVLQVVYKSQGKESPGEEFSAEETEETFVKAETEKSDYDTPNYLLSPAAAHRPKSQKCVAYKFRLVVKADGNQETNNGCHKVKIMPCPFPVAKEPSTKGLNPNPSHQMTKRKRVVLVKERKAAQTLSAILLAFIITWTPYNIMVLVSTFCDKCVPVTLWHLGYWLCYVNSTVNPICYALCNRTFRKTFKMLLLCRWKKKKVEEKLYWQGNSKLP

[4] = biological target: T3, Peroxisome proliferator-activated receptor gamma (Homo sapiens, UniProt P37231); assay type: functional
T3 sequence (P37231 whole entry): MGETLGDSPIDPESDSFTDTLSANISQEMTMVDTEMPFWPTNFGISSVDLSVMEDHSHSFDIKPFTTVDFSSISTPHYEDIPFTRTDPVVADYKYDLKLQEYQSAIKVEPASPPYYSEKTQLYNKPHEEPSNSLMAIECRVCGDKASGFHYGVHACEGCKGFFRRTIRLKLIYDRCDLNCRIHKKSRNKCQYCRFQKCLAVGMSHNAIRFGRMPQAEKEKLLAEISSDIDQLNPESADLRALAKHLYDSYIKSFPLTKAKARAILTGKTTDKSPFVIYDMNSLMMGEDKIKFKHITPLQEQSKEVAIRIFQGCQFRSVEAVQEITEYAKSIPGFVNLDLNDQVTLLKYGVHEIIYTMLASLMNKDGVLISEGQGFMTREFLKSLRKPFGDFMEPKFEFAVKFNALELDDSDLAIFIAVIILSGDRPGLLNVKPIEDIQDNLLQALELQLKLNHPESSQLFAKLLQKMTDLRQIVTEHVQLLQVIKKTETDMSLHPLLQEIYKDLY

[5] = biological target: 5-hydroxytryptamine receptor 7 (Homo sapiens, UniProt P34969)
Cannabinoid receptor 1 = Cannabinoid receptor 1 (Homo sapiens, UniProt P21554); assay type: functional
[6] = biological target: T4, Type-2 angiotensin II receptor (Homo sapiens, UniProt P50052); assay type: functional
T4 sequence (P50052 whole entry): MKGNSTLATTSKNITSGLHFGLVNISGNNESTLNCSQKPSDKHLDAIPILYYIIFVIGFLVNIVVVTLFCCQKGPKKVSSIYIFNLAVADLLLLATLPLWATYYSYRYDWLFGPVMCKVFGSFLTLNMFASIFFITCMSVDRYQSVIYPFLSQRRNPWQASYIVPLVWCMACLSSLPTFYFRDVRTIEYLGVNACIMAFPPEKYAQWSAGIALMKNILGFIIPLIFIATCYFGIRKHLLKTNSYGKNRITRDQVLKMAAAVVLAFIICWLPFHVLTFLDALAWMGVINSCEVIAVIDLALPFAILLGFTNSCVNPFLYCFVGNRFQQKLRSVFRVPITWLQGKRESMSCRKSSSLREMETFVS

[7] = biological target: Hydroxycarboxylic acid receptor 2 (Homo sapiens, UniProt Q8TDS4)
[8] = biological target: Synaptic vesicular amine transporter (Rattus norvegicus, UniProt Q01827); assay type: functional
[9] = biological target: T5, 5-hydroxytryptamine receptor 1A (Homo sapiens, UniProt P08908)
T5 sequence (P08908 whole entry): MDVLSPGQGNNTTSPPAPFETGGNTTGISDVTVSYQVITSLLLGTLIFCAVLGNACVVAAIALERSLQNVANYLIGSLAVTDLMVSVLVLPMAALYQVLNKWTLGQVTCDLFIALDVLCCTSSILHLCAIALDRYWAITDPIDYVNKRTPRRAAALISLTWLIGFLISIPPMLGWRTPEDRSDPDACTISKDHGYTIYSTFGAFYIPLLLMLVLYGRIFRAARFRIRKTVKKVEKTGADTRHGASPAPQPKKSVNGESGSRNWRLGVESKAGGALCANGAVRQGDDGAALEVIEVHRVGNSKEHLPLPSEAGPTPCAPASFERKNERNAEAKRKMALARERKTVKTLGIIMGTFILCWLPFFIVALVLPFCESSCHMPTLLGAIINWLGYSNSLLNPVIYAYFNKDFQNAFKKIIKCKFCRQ
Also: assay procedure not described here.

Beta-1 adrenergic receptor, sequence (P08588 whole entry): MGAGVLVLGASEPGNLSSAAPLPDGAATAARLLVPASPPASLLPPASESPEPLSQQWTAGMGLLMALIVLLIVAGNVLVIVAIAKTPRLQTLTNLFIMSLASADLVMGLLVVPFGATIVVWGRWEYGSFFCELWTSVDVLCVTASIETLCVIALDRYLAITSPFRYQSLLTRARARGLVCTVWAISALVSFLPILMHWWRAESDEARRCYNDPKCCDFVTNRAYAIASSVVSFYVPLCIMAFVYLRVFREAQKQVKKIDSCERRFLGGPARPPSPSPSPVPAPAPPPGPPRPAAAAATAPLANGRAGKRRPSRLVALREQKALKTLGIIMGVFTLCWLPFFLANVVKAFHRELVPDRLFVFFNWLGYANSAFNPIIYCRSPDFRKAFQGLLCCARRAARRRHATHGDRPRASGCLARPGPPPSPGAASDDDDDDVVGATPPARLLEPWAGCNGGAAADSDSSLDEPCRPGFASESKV
Cannabinoid receptor 1, sequence (P21554 whole entry): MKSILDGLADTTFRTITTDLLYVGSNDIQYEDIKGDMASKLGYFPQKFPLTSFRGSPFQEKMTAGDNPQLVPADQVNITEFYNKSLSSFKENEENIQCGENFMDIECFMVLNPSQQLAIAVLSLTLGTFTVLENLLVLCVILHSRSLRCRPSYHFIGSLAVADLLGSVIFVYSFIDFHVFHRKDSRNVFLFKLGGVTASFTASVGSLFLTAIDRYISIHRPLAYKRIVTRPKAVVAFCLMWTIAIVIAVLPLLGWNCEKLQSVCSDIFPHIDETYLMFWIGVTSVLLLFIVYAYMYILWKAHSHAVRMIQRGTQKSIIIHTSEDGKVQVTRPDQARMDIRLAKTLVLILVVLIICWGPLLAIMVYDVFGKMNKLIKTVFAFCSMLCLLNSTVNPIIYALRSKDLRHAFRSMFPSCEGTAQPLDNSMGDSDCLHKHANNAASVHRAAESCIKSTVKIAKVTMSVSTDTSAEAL
5-hydroxytryptamine receptor 7, sequence (P34969 whole entry): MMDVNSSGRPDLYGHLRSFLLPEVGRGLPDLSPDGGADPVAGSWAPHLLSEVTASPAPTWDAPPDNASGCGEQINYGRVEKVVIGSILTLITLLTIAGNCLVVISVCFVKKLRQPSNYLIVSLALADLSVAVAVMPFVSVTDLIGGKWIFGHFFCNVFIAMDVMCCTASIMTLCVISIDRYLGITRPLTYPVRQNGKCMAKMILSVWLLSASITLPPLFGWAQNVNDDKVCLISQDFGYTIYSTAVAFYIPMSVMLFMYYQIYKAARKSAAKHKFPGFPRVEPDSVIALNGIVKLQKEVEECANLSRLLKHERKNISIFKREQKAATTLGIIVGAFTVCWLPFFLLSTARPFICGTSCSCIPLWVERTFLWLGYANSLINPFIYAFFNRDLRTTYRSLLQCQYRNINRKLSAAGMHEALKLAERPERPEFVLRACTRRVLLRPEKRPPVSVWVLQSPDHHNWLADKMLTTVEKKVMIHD
Hydroxycarboxylic acid receptor 2, sequence (Q8TDS4 whole entry): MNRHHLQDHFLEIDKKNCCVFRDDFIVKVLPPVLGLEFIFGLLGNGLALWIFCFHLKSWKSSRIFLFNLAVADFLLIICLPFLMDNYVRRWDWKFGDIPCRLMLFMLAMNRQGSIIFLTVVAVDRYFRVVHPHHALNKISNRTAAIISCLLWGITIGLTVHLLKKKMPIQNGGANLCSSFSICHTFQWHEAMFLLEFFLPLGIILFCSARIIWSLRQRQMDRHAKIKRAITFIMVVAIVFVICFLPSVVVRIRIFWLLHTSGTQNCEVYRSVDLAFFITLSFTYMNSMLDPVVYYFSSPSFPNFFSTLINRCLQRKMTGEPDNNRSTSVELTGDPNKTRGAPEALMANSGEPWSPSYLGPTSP
Synaptic vesicular amine transporter, sequence (Q01827 whole entry): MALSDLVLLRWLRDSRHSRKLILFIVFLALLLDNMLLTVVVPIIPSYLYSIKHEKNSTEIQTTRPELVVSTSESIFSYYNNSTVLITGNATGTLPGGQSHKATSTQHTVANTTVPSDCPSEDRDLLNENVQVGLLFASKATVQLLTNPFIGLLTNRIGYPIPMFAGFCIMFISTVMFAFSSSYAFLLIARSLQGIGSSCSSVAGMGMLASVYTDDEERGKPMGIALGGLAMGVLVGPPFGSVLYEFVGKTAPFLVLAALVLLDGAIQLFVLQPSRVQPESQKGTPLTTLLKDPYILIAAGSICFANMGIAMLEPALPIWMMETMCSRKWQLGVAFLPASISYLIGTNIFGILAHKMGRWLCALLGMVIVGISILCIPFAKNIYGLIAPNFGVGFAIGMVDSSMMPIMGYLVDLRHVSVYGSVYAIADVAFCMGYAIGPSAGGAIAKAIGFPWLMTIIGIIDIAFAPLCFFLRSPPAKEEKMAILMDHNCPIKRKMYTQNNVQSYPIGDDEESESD

## CC(C)N(CCCCOCC(=O)O)c1cnc(-c2ccccc2)c(-c2ccccc2)n1
[1]
  AC50: > 30 µM

## C[N+]12CCC(CC1)C(OC(=O)C(O)(c1ccccc1)c1ccccc1)C2 (configuration not stated)
[2]
  AC50: 0.0047 µM
[3]
  AC50: 0.0068 µM

## O=C(CCCN1CCC(O)(c2ccc(Br)cc2)CC1)c1ccc(F)cc1 [BROMPERIDOL]
[1]
  AC50: > 30 µM

## CO/N=C(\C(=O)N[C@@H]1C(=O)N2C(C(=O)O)=CCS[C@H]12)c1csc(N)n1 [CEFTIZOXIME]
[4]
  AC50: > 30 µM

## CO/N=C(\C(=O)N[C@@H]1C(=O)N2C(C(=O)O)=C(CSc3nc(=O)c(=O)[nH]n3C)CS[C@H]12)c1csc(N)n1 [CEFTRIAXONE]
[4]
  AC50: > 30 µM

## CCOC(=O)C(C)(C)Oc1ccc(Cl)cc1 [CLOFIBRATE]
[4]
  AC50: > 30 µM

## CCCCOc1ccc(C(=O)CCN2CCCCC2)cc1 [DYCLONINE]
[2]
  AC50: 13.4 µM
[5]
  AC50: > 10 µM
Cannabinoid receptor 1
  AC50: > 10 µM
[3]
  AC50: 15.8 µM

## CC(C)NC[C@H](O)COc1ccc(CC(N)=O)cc1 [ESATENOLOL]
[5]
  AC50: > 10 µM
Cannabinoid receptor 1
  AC50: > 10 µM

## NNC(=O)c1ccncc1 [ISONIAZID]
[5]
  AC50: > 10 µM
Cannabinoid receptor 1
  AC50: > 10 µM

## O=C1Nc2ccc(Cl)cc2C(c2ccccc2Cl)=NC1O (configuration not stated) [LORAZEPAM]
[6]
  AC50: > 100 µM
[7]
  AC50: > 10 µM

## CN1CCN=C(c2ccccc2)c2cc(Cl)ccc21 [MEDAZEPAM]
[1]
  AC50: > 30 µM

## Cc1ccnc2c1NC(=O)c1cccnc1N2C1CC1 [NEVIRAPINE]
[2]
  AC50: > 10 µM
[5]
  AC50: > 10 µM
Cannabinoid receptor 1
  AC50: > 10 µM
[3]
  AC50: > 10 µM

## Fc1ccc([C@@H]2CCNC[C@H]2COc2ccc3c(c2)OCO3)cc1 [PAROXETINE]
[2]
  AC50: 3.47 µM
[8]
  AC50: 2500 nM
[6]
  AC50: > 100 µM
[5]
  AC50: > 10 µM
Cannabinoid receptor 1
  AC50: > 10 µM

## CCC(=O)O[C@](Cc1ccccc1)(c1ccccc1)[C@H](C)CN(C)C [PROPOXYPHENE]
[7]
  AC50: > 10 µM

## CCN(CC)CCCC(C)Nc1c2ccc(Cl)cc2nc2ccc(OC)cc12 (configuration not stated) [QUINACRINE]
[9]
  AC50: 2260 nM

## C=CCN1CCc2nc(N)sc2CC1 [TALIPEXOLE]
[1]
  AC50: > 30 µM

## CCOC(=O)[C@@H](N)Cc1ccc(-c2cc(O[C@H](c3ccc(Cl)cc3-n3ccc(C)n3)C(F)(F)F)nc(N)n2)cc1 [TELOTRISTAT ETHYL]
[4]
  AC50: > 30 µM

## CC(c1cc2ccccc2s1)N(O)C(N)=O (configuration not stated) [ZILEUTON]
[8]
  AC50: > 30000 nM

— ChEMBL document CHEMBL5291721, “A preclinical secondary pharmacology resource illuminates target-adverse drug reaction associations of marketed drugs” (Nat Commun, 2023)
